Measured values: publication PMC12655351, “Synthesis and Anticancer Activity Evaluation of New 5-((5-Nitrofuran-2-yl)allylidene)-2-thioxo-4-thiazolidinones” (Pharmaceuticals, 2025)
Values joined by “and” are separate entries in the source; they are usually repeats but may differ in a detail not shown here. Equal entries are not always repeated. Where two headings read alike, the source gives them in different places.

Assays:
SR = experiment: cells; conditions: Homo sapiens, 48 h
NCI-H322M = experiment: NCI-60 SRB screen; conditions: 48 h; for CC50: read-out: LC50, NCI-H322M, 48 h
SK-MEL-5 = experiment: cells; conditions: Homo sapiens, SK-MEL-5, 48 h; for CC50: read-out: LC50, SK-MEL-5, 48 h
BT-549 = conditions: 48 h; for growth GP: BT-549, 10 μM
K-562 = conditions: K-562, 48 h
TK-10 = conditions: for growth GP: TK-10, 10 μM; for growth GP / CC50: 48 h; for CC50: human
U251 = experiment: NCI-60 SRB screen
OVCAR-4 = conditions: for growth GP: OVCAR-4, 10 μM; for GI50 / TGI: OVCAR-4, 48 h
DU-145 = conditions: for growth GP: DU-145, 10 μM; for growth GP / CC50: 48 h; for GI50 / TGI: DU-145, 48 h; for CC50: human
MOLT-4 = conditions: MOLT-4, 48 h
MDA-MB-468 = experiment: NCI-60 SRB screen; conditions: MDA-MB-468, 48 h
HS 578T = experiment: cells; conditions: Homo sapiens, 48 h; for CC50: read-out: LC50
[1] = tested on: Non-small cell lung cancer; conditions: Non-small cell lung cancer subpanel
MDA-MB-231 = experiment: [3H]-thymidine incorporation assay; format: cell-based; conditions: Homo sapiens; MDA-MB-231, 24 h of treatment
Description: (§1) Another method of assessing the cytotoxic effects of tested compounds, [^3H]-thymidine incorporation assay, was applied. This method provided the capability to analyze the antiproliferative activity of novel structures on MCF-7 and MDA-MB-231 through their ability to incorporate thymidine into the cells. The acquired results further confirmed the potent activity of the 14b compound as the most prominent structure among the novel compounds (Table 2). The test was carried out in triplicate at concentrations of 5, 15, and 30 μM for the MDA-MB-231 cell line and 1, 5, and 10 μM for the MCF-7 cell line.
(§2) Following the selection of cell lines for further study, the effects of all compounds on cell proliferation were evaluated on MCF-7 and MDA-MB-231 cell lines. Cells were seeded in 24-well plates and cultured as described above. Cells were treated with the compounds at concentrations 1, 5, and 10 μM, and 5, 15, and 30 μM for MCF-7 and MDA-MB-231 cell lines, respectively, for 24 h. Subsequently, 0.5 μCi [^3H]-thymidine was added for 4 h at 37 °C. Then, plates with cells were placed on the ice, the liquid was aspirated, and cells were washed twice with 1mL of 0.05 M Tris-HCl buffer comprising 0.11 M NaCl and precipitated by adding 1 mL per well of 5% trichloroacetic. After precipitation, the cells were dissolved with 1 mL of 0.1 M NaOH with 1% SDS (Sigma-Aldrich, St. Louis, MO, USA) at room temperature (RT). The cell lysates were transferred into scintillation vials containing 2 mL of scintillation fluid (Ultima Gold™ XR, PerkinElmer, MA, USA), and cell-associated radioactivity was measured using a Scintillation Counter 1900 TR, TRI-CARB (Packard, Perkin Elmer, Inc., San Jose, CA, USA). The [^3H]-thymidine uptake was expressed as a percentage of the control value.

MCF-7 = experiment: [3H]-thymidine incorporation assay; format: cell-based; conditions: Homo sapiens, MCF7; MCF-7, 24 h of treatment
Description: as §1, §2

Leukemia = Leukemia subpanel
OVCAR-5 = experiment: NCI-60 SRB screen; conditions: for growth GP: OVCAR-5, 10 μM, 48 h; for TGI / GI50: OVCAR-5, 48 h
[2] = tested on: Non-small cell lung cancer; experiment: cells; conditions: Homo sapiens; for GI50: read-out: MG_MID GI50; for CC50: read-out: MG_MID LC50
HCT-116 = conditions: HCT-116, 48 h
Renal Cancer = experiment: cells; conditions: Homo sapiens; for GI50: read-out: MG_MID GI50; for CC50: read-out: MG_MID LC50
[3] = Homo sapiens, U-251, 48 h, U251, 48 h
[4] = Homo sapiens, U-251, 48 h, read-out: LC50, U251, 48 h

For `O=C(O)CCCN1C(=O)/C(=C/C=C/c2ccc([N+](=O)[O-])o2)SC1=S` [13b, 4-((Z)-5-((E)-3-(5-Nitrofuran-2-yl)allylidene)-4-oxo-2-thioxothiazolidin-3-yl)butanoic acid], which CC50 (SR; read-out: LC50) is on record?
Its CC50 is over 100000 nM.

And the GI50 (NCI-H322M)?
Its GI50 is 1970 nM.

And the TGI (NCI-H322M)?
Its TGI is 8090 nM and 5500 nM.

And the GI50 (NCI-H322M; Homo sapiens)?
Its GI50 is 2520 nM.

And the CC50 (NCI-H322M; Homo sapiens)?
Its CC50 is 28300 nM.

And the GI50 (SK-MEL-5)?
Its GI50 is 610 nM.

And the CC50 (SK-MEL-5)?
The CC50 was 4610 nM.

What about the “growth GP” value (BT-549) of the same molecule?
Its value is -98.54%.

And the GI50 (K-562)?
The GI50 was 90 nM.

And the TGI (K-562)?
Its TGI is over 100000 nM.

What about the “growth GP” value (TK-10) of the same molecule?
Its value is -97.38%.

What about the TGI (TK-10; TK-10, 48 h) of the same molecule?
Its TGI is 3180 nM and 2030 nM.

What about the CC50 (TK-10) of the same molecule?
Its CC50 is 4770 nM.

And the GI50 (U251; [3])?
The GI50 was 370 nM.

And the CC50 (U251; [4])?
Its CC50 is 4230 nM.

What about the GI50 (U251; U251, 48 h) of the same molecule?
The GI50 was 190 nM.

And the CC50 (U251; read-out: LC50, U251, 48 h)?
Its CC50 is 3160 nM.

What about the “growth GP” value (OVCAR-4; 48 h) of the same molecule?
The value was -97.74%.

And the GI50 (OVCAR-4)?
Its GI50 is 1560 nM.

What about the TGI (OVCAR-4) of the same molecule?
Its TGI is 2580 nM and 2940 nM.

And the CC50 (OVCAR-4; human, 48 h)?
Its CC50 is 5540 nM.

What about the “growth GP” value (DU-145) of the same molecule?
The value was -99.43%.

And the GI50 (DU-145)?
The GI50 was 1150 nM.

What about the TGI (DU-145) of the same molecule?
The TGI was 2320 nM and 2830 nM.

And the CC50 (DU-145)?
Its CC50 is 7010 nM.

And the GI50 (MOLT-4)?
The GI50 was 290 nM.

And the TGI (MOLT-4)?
The TGI was 1860 nM and 1160 nM.

What about the TGI (SF-268; SF-268, 48 h) of the same molecule?
The TGI was 2840 nM and 2890 nM.

And the GI50 (MDA-MB-468; Homo sapiens)?
Its GI50 is 330 nM.

What about the GI50 (MDA-MB-468) of the same molecule?
Its GI50 is 170 nM.

And the CC50 (HS 578T)?
The CC50 was over 100000 nM.

And the “MG_MID TGI” value [1]?
Its value is 4480 nM.

What about the IC50 (MDA-MB-231) of the same molecule?
Its IC50 is 1770 nM.

And the IC50 (MCF-7)?
Its IC50 is 3970 nM.

And the “MG_MID TGI” value (Leukemia)?
Its value is 28300 nM.

And the “growth GP” value (OVCAR-5)?
The value was -97.64%.

And the TGI (OVCAR-5)?
Its TGI is 3320 nM and 2020 nM.

And the GI50 [2]?
The GI50 was 1210 nM.

And the CC50 [2]?
Its CC50 is 24600 nM.

And the GI50 (HCT-116)?
The GI50 was 170 nM.

What about the TGI (HCT-116) of the same molecule?
The TGI was 1150 nM and 640 nM.

What about the GI50 (Renal Cancer) of the same molecule?
Its GI50 is 990 nM.

What about the CC50 (Renal Cancer) of the same molecule?
The CC50 was 7480 nM.

What does the source list for `O=C(O)CCCCCN1C(=O)/C(=C/C=C/c2ccc([N+](=O)[O-])o2)SC1=S` [14b, 6-((Z)-5-((E)-3-(5-nitrofuran-2-yl)allylidene)-4-oxo-2-thioxothiazolidin-3-yl)hexanoic acid]?
GI50 (SR): 270 nM; GI50 (NCI-H322M): 1820 nM; TGI (NCI-H322M): 3390 nM and 3550 nM; GI50 (NCI-H322M; Homo sapiens): 1680 nM; CC50 (NCI-H322M; Homo sapiens): 6840 nM; CC50 (SK-MEL-5): 4600 nM; growth GP (BT-549): -97.16%; CC50 (BT-549; human): 3030 nM; GI50 (K-562): 280 nM; growth GP (TK-10): -95.04%; GI50 (TK-10; TK-10, 48 h): 1850 nM; TGI (TK-10; TK-10, 48 h): 3320 nM and 3470 nM; CC50 (TK-10): 6330 nM; GI50 (U251; [3]): 570 nM; CC50 (U251; [4]): 4860 nM; GI50 (U251; U251, 48 h): 340 nM; TGI (U251; U251, 48 h): 1920 nM and 1220 nM; growth GP (OVCAR-4; 48 h): -97.80%; GI50 (OVCAR-4): 1490 nM; TGI (OVCAR-4): 2690 nM and 2840 nM; growth GP (DU-145): -98.04%; GI50 (DU-145): 1590 nM; TGI (DU-145): 2870 nM and 3180 nM; CC50 (DU-145): 6350 nM; GI50 (MOLT-4): 310 nM; TGI (MOLT-4): 1500 nM and 1210 nM; GI50 (SF-268; SF-268, 48 h): 1320 nM; TGI (SF-268; SF-268, 48 h): 2710 nM and 3630 nM; CC50 (SF-268; human, 48 h): 9990 nM; CC50 (MDA-MB-468; Homo sapiens, read-out: LC50, MDA-MB-468, 48 h): 5270 nM; GI50 (HS 578T; HS 578T): 1440 nM; CC50 (HS 578T): > 100000 nM; MG_MID TGI [1]: 3850 nM; IC50 (MDA-MB-231): 1600 nM; IC50 (MCF-7): 2600 nM; MG_MID TGI (Leukemia): 11350 nM; GI50 (OVCAR-5; Homo sapiens): 1850 nM; growth GP (OVCAR-5): -96.01%; GI50 (OVCAR-5): 1560 nM; TGI (OVCAR-5): 3310 nM and 2970 nM; GI50 [2]: 1480 nM; CC50 [2]: 21800 nM; GI50 (HCT-116): 200 nM; GI50 (Renal Cancer): 1980 nM; CC50 (Renal Cancer): 10400 nM
